From PubChem BioAssay AID1259407 (Chemical Carcinogenesis Research Information System (CCRIS), 2018)
Activity calls are given as the source filed them. The rule behind the calls is not given here.

Tested on: CCRIS mutagenicity, Ames/micronucleus/aberration tests
Assay: CCRIS mutagenicity studies
[1] = Test System: AMES SALMONELLA TYPHIMURIUM, Strain/Indicator: TA1537, Metabolic Activation: NONE, Method: STANDARD PLATE

## O=C1c2ccccc2C(=O)c2ccccc21
End Point: IN VIVO MICRONUCLEUS, Test System: BONE MARROW POLYCHROMATIC ERYTHROCYTES, Species: MOUSE, Strain/Sex: B6C3F1/MALE, Route: IP INJECTION IN CORN OIL
  mutagenic call: inactive; negative
End Point: IN VIVO MICRONUCLEUS, Test System: PERIPHERAL BLOOD ERYTHROCYTES, Species: MOUSE, Strain/Sex: B6C3F1/MALE, FEMALE, Route: DIET
  mutagenic call: active; positive (at highest dose); (99.8% pure)
Test System: AMES SALMONELLA TYPHIMURIUM, Strain/Indicator: TA97, Metabolic Activation: NONE, Method: STANDARD PLATE
  mutagenic call: inactive; negative
Test System: AMES SALMONELLA TYPHIMURIUM, Strain/Indicator: TA97, Metabolic Activation: RAT, LIVER, S-9, PCB, Method: STANDARD PLATE
  mutagenic call: inactive; negative
Test System: AMES SALMONELLA TYPHIMURIUM, Strain/Indicator: TA98, Metabolic Activation: HAMSTER, LIVER, S-9, AROCLOR 1254, Method: STANDARD PLATE
  mutagenic call: inactive; negative
Test System: AMES SALMONELLA TYPHIMURIUM, Strain/Indicator: TA98, Metabolic Activation: NONE, Method: STANDARD PLATE
  mutagenic call: inactive; negative
Test System: AMES SALMONELLA TYPHIMURIUM, Strain/Indicator: TA98, Metabolic Activation: RAT LIVER S-9, AROCLOR, Method: STANDARD PLATE
  mutagenic call: inactive; negative
Test System: AMES SALMONELLA TYPHIMURIUM, Strain/Indicator: TA98, Metabolic Activation: RAT LIVER S-9, PHENOBARBITAL AND BETA-NAPHTHOFLAVONE (30%), Method: PREINCUBATION
  mutagenic call: inactive; negative
Test System: AMES SALMONELLA TYPHIMURIUM, Strain/Indicator: TA98, Metabolic Activation: RAT LIVER S-9, PHENOBARBITAL AND BETA-NAPHTHOFLAVONE, Method: PREINCUBATION
  mutagenic call: inactive; negative
Test System: AMES SALMONELLA TYPHIMURIUM, Strain/Indicator: TA98, Metabolic Activation: RAT, LIVER S-9, AROCLOR 1254 (10%, 30%), Method: PREINCUBATION
  mutagenic call: inactive; negative; 99.8% pure
Test System: AMES SALMONELLA TYPHIMURIUM, Strain/Indicator: TA98, Metabolic Activation: RAT, LIVER, S-9, AROCLOR 1254, Method: STANDARD PLATE
  mutagenic call: inactive; negative
Test System: AMES SALMONELLA TYPHIMURIUM, Strain/Indicator: TA98, Metabolic Activation: RAT, LIVER, S-9, PCB, Method: STANDARD PLATE
  mutagenic call: inactive; negative
Test System: AMES SALMONELLA TYPHIMURIUM, Strain/Indicator: TA100, Metabolic Activation: HAMSTER, LIVER, S-9, AROCLOR 1254, Method: STANDARD PLATE
  mutagenic call: inactive; negative
Test System: AMES SALMONELLA TYPHIMURIUM, Strain/Indicator: TA100, Metabolic Activation: NONE, Method: STANDARD PLATE
  mutagenic call: inactive; negative
Test System: AMES SALMONELLA TYPHIMURIUM, Strain/Indicator: TA100, Metabolic Activation: RAT LIVER S-9, AROCLOR, Method: STANDARD PLATE
  mutagenic call: inactive; negative
Test System: AMES SALMONELLA TYPHIMURIUM, Strain/Indicator: TA100, Metabolic Activation: RAT LIVER S-9, PHENOBARBITAL AND BETA-NAPHTHOFLAVONE (30%), Method: PREINCUBATION
  mutagenic call: inactive; negative
Test System: AMES SALMONELLA TYPHIMURIUM, Strain/Indicator: TA100, Metabolic Activation: RAT LIVER S-9, PHENOBARBITAL AND BETA-NAPHTHOFLAVONE, Method: PREINCUBATION
  mutagenic call: inactive; negative
Test System: AMES SALMONELLA TYPHIMURIUM, Strain/Indicator: TA100, Metabolic Activation: RAT, LIVER S-9, AROCLOR 1254 (10%, 30%), Method: PREINCUBATION
  mutagenic call: inactive; negative; 99.8% pure
Test System: AMES SALMONELLA TYPHIMURIUM, Strain/Indicator: TA100, Metabolic Activation: RAT, LIVER, S-9, AROCLOR 1254, Method: STANDARD PLATE
  mutagenic call: inactive; negative
Test System: AMES SALMONELLA TYPHIMURIUM, Strain/Indicator: TA100, Metabolic Activation: RAT, LIVER, S-9, PCB, Method: STANDARD PLATE
  mutagenic call: inactive; negative
Test System: AMES SALMONELLA TYPHIMURIUM, Strain/Indicator: TA102, Metabolic Activation: NONE, Method: PREINCUBATION
  mutagenic call: inactive; negative; 100% pure
Test System: AMES SALMONELLA TYPHIMURIUM, Strain/Indicator: TA102, Metabolic Activation: RAT, LIVER, S-9, AROCLOR 1254 (10%), Method: PREINCUBATION
  mutagenic call: inactive; negative; 100% pure
Test System: AMES SALMONELLA TYPHIMURIUM, Strain/Indicator: TA102, Metabolic Activation: RAT, LIVER, S-9, AROCLOR 1254, Method: STANDARD PLATE
  mutagenic call: inactive; negative
Test System: AMES SALMONELLA TYPHIMURIUM, Strain/Indicator: TA1535, Metabolic Activation: HAMSTER, LIVER, S-9, AROCLOR 1254, Method: STANDARD PLATE
  mutagenic call: inactive; negative
Test System: AMES SALMONELLA TYPHIMURIUM, Strain/Indicator: TA1535, Metabolic Activation: NONE, Method: PREINCUBATION
  mutagenic call: inactive; negative
Test System: AMES SALMONELLA TYPHIMURIUM, Strain/Indicator: TA1535, Metabolic Activation: NONE, Method: STANDARD PLATE
  mutagenic call: inactive; negative
Test System: AMES SALMONELLA TYPHIMURIUM, Strain/Indicator: TA1535, Metabolic Activation: RAT LIVER S-9, AROCLOR, Method: STANDARD PLATE
  mutagenic call: inactive; negative
Test System: AMES SALMONELLA TYPHIMURIUM, Strain/Indicator: TA1535, Metabolic Activation: RAT LIVER S-9, PHENOBARBITAL AND BETA-NAPHTHOFLAVONE (30%), Method: PREINCUBATION
  mutagenic call: inactive; negative
Test System: AMES SALMONELLA TYPHIMURIUM, Strain/Indicator: TA1535, Metabolic Activation: RAT LIVER S-9, PHENOBARBITAL AND BETA-NAPHTHOFLAVONE, Method: PREINCUBATION
  mutagenic call: inactive; negative
Test System: AMES SALMONELLA TYPHIMURIUM, Strain/Indicator: TA1535, Metabolic Activation: RAT, LIVER, S-9, AROCLOR 1254, Method: STANDARD PLATE
  mutagenic call: inactive; negative
Test System: AMES SALMONELLA TYPHIMURIUM, Strain/Indicator: TA1537, Metabolic Activation: HAMSTER, LIVER, S-9, AROCLOR 1254, Method: STANDARD PLATE
  mutagenic call: inactive; negative
[1]
  mutagenic call: inactive; negative
Test System: AMES SALMONELLA TYPHIMURIUM, Strain/Indicator: TA1537, Metabolic Activation: RAT LIVER S-9, AROCLOR, Method: STANDARD PLATE
  mutagenic call: inactive; negative
Test System: AMES SALMONELLA TYPHIMURIUM, Strain/Indicator: TA1537, Metabolic Activation: RAT LIVER S-9, PHENOBARBITAL AND BETA-NAPHTHOFLAVONE (30%), Method: PREINCUBATION
  mutagenic call: active; positive
Test System: AMES SALMONELLA TYPHIMURIUM, Strain/Indicator: TA1537, Metabolic Activation: RAT LIVER S-9, PHENOBARBITAL AND BETA-NAPHTHOFLAVONE, Method: PREINCUBATION
  mutagenic call: inactive; negative
Test System: AMES SALMONELLA TYPHIMURIUM, Strain/Indicator: TA1537, Metabolic Activation: RAT, LIVER S-9, AROCLOR 1254 (10%, 30%), Method: PREINCUBATION
  mutagenic call: inactive; negative; 99.8% pure
Test System: AMES SALMONELLA TYPHIMURIUM, Strain/Indicator: TA1537, Metabolic Activation: RAT, LIVER, S-9, AROCLOR 1254, Method: STANDARD PLATE
  mutagenic call: inactive; negative
Test System: E. COLI, Strain/Indicator: WP2 UVRA, Metabolic Activation: NONE, Method: STANDARD PLATE
  mutagenic call: inactive; negative
Test System: E. COLI, Strain/Indicator: WP2 UVRA, Metabolic Activation: RAT LIVER S-9, AROCLOR, Method: STANDARD PLATE
  mutagenic call: inactive; negative
Test System: E.COLI, Strain/Indicator: WP2UVRA, Metabolic Activation: NONE, Method: PREINCUBATION
  mutagenic call: inactive; negative
Test System: E.COLI, Strain/Indicator: WP2UVRA, Metabolic Activation: RAT LIVER S-9, PHENOBARBITAL AND BETA-NAPHTHOFLAVONE (30%), Method: PREINCUBATION
  mutagenic call: inactive; negative
Test System: E.COLI, Strain/Indicator: WP2UVRA, Metabolic Activation: RAT LIVER S-9, PHENOBARBITAL AND BETA-NAPHTHOFLAVONE, Method: PREINCUBATION
  mutagenic call: inactive; negative
Test System: MOUSE LYMPHOMA, Strain/Indicator: L5178Y (TK+/TK-), Metabolic Activation: NONE, Method: SUSPENSION/PLATE
  mutagenic call: inactive; negative
Test System: MOUSE LYMPHOMA, Strain/Indicator: L5178Y (TK+/TK-), Metabolic Activation: RAT LIVER S-9, AROCLOR, Method: SUSPENSION/PLATE
  mutagenic call: inactive; negative

## [N-]=[N+]=Nc1ccc(Nc2c3ccccc3nc3ccccc23)cc1
[1]
  mutagenic call: active; positive

## CC(C)C(N)C(=O)O (stereo unspecified)
Test System: AMES SALMONELLA TYPHIMURIUM, Strain/Indicator: TA98, Metabolic Activation: RAT LIVER S-9, CHLOROPHENE, Method: STANDARD PLATE (COMPOUND HEATED AT 250 DEGREES CELSIUS FOR 20 MIN)
  mutagenic call: inactive; negative
